Test results from patent US20240343727A1, “PYRIDAZINONE OR PYRIDINONE COMPOUNDS, PREPARATION METHODS AND USES THEREOF” (InventisBio Co., Ltd., priority 2021, published 2024).

Molecular target: T1, PARP7 (Homo sapiens, UniProt Q7Z3E1)
T1 sequence (Q7Z3E1 1-657): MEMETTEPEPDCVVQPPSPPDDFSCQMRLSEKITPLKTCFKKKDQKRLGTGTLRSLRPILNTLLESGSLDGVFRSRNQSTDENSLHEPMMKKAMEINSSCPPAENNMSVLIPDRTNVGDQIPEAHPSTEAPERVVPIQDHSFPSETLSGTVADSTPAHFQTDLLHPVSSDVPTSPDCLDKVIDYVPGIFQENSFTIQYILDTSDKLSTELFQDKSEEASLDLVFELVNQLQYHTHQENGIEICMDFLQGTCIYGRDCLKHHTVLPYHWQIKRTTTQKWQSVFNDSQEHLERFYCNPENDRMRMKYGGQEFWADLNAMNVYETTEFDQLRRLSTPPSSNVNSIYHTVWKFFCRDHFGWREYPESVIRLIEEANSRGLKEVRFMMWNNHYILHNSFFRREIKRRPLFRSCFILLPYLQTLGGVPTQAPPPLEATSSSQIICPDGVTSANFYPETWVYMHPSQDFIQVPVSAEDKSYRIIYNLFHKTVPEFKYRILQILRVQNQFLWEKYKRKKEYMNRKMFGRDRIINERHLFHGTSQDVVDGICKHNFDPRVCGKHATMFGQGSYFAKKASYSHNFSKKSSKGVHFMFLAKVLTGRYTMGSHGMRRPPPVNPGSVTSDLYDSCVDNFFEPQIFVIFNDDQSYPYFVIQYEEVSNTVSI
Test: PARP7 TR-FRET assay (binding, displacement of biotinylated Probe A)
Conditions: 6 nM PARP7, 2 nM Probe A, 25° C., 30 min
Procedure, shortened: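 Compound displacement of biotinylated Probe A (2 nM) from PARP7 (6 nM) measured by TR-FRET in HEPES pH 8.0 buffer, 30 min at 25° C. Detection used ULight-anti 6xHis (4 nM) plus Eu-streptavidin (0.25 nM) for 30 min, reading the 665/615 nm ratio. % inhibition was taken against DMSO and no-enzyme wells, and IC50 from a Hill fit.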

SMILES | IC50
Cc1ccc(C(=O)N2CCN(c3ncc(C(F)(F)F)cn3)CC2)cc1Oc1n[nH]c(=O)c(C(F)(F)F)c1C [Compound 19] | < 100 nM
Cc1c(Oc2cncc(C(=O)N3CCN(c4ncc(C(F)(F)F)cn4)CC3)c2)n[nH]c(=O)c1C(F)(F)F [Compound 20] | < 100 nM
Cc1c(Oc2cc(Cl)cc(C(=O)N3CCN(c4ncc(C(F)(F)F)cn4)CC3)c2)n[nH]c(=O)c1C(F)(F)F [Compound 22] | 100 to 1000 nM
Cc1cc(Oc2n[nH]c(=O)c(C(F)(F)F)c2C)cc(C(=O)N2CCN(c3ncc(C(F)(F)F)cn3)CC2)c1 [Compound 23] | < 100 nM
Cc1c(Oc2cc(C(=O)N3CCN(c4ncc(C(F)(F)F)cn4)CC3)ccc2Cl)n[nH]c(=O)c1C(F)(F)F [Compound 24] | 100 to 1000 nM
Cc1c(Oc2ccc(F)c(C(=O)N3CCN(c4ncc(C(F)(F)F)cn4)CC3)c2)n[nH]c(=O)c1C(F)(F)F [Compound 25] | < 100 nM
Cc1c(Oc2cccc(C(=O)N3CC[C@H](Oc4ncc(C(F)(F)F)cn4)C3)c2)n[nH]c(=O)c1C(F)(F)F [Compound 28] | > 1000 nM
Cc1c(Oc2cccc(C(=O)N3CC[C@@H](Oc4ncc(C(F)(F)F)cn4)C3)c2)n[nH]c(=O)c1C(F)(F)F [Compound 29] | > 1000 nM
O=C(c1ccc2c(c1)N(c1cc(C(F)(F)F)c(=O)[nH]n1)CCO2)N1CCN(c2ncc(C(F)(F)F)cn2)CC1 [Compound 30] | 100 to 1000 nM
O=C([C@H]1CN(c2cc(C(F)(F)F)c(=O)[nH]n2)CCO1)N1CCN(c2ncc(C(F)(F)F)cn2)CC1 [Compound 33] | 100 to 1000 nM
O=C([C@@H]1COCCN1c1cc(C(F)(F)F)c(=O)[nH]n1)N1CCN(c2ncc(C(F)(F)F)cn2)CC1 [Compound 36] | < 100 nM
N#Cc1ccc(N2CCN(C(=O)[C@@H]3COCCN3c3cc(C(F)(F)F)c(=O)[nH]n3)CC2)nc1 [Compound 37] | < 100 nM
C#Cc1cc(N2CCOCC2C(=O)N2CCN(c3ncc(C(F)(F)F)cn3)CC2)n[nH]c1=O (stereo not shown) [Compound 46] | > 1000 nM
O=C(C[C@@H]1CCCN1c1n[nH]c(=O)c2ccccc12)N1CCN(c2ncc(C(F)(F)F)cn2)CC1 [Compound 47] | > 1000 nM
C[C@@H]1C[C@@H](OCC(=O)N2CCN(c3ncc(C(F)(F)F)cn3)CC2)c2n[nH]c(=O)c(C(F)(F)F)c2O1 [Compound 56] | < 100 nM
O=C(CC[C@@H]1COCCN1c1cc(C(F)(F)F)c(=O)[nH]n1)N1CCN(c2ncc(C(F)(F)F)cn2)CC1 [Compound 58] | < 100 nM
O=C(c1cccc(Oc2n[nH]c(=O)c(C(F)(F)F)c2N2CC3(CC3)C2)c1)N1CCN(c2ncc(C(F)(F)F)cn2)CC1 [Compound 59] | < 100 nM
N#CC1CN(c2c(Oc3cccc(C(=O)N4CCN(c5ncc(C(F)(F)F)cn5)CC4)c3)n[nH]c(=O)c2C(F)(F)F)C1 [Compound 60] | < 100 nM
CNC1CN(c2c(Oc3cccc(C(=O)N4CCN(c5ncc(C(F)(F)F)cn5)CC4)c3)n[nH]c(=O)c2C(F)(F)F)C1 [Compound 61] | < 100 nM
Cc1c(Sc2cccc(C(=O)N3CCN(c4ncc(C(F)(F)F)cn4)CC3)c2)n[nH]c(=O)c1C(F)(F)F [Compound 62] | < 100 nM
Cc1c(Oc2cc(C(=O)N3CCN(c4ncc(C(F)(F)F)cn4)CC3)ccc2C2CC2)n[nH]c(=O)c1C(F)(F)F [Compound 64] | < 100 nM
Cc1ccc(Oc2n[nH]c(=O)c(C(F)(F)F)c2C)cc1C(=O)N1CCN(c2ncc(C(F)(F)F)cn2)CC1 [Compound 65] | < 100 nM
Cc1c(Oc2cccc(C(=O)N3CCN(c4ncc(C(F)(F)F)s4)CC3)c2)n[nH]c(=O)c1C(F)(F)F [Compound 66] | < 100 nM

SMILES | IC50
O=C(c1cccc(Oc2n[nH]c(=O)c(C(F)(F)F)c2N2CC3CC3C2)c1)N1CCN(c2ncc(C(F)(F)F)cn2)CC1 (stereo not shown) [Compound 68] | < 100 nM
CN1CC2(C1)CN(c1c(Oc3cccc(C(=O)N4CCN(c5ncc(C(F)(F)F)cn5)CC4)c3)n[nH]c(=O)c1C(F)(F)F)C2 [Compound 69] | < 100 nM
O=C(c1cccc(Oc2n[nH]c(=O)c(C(F)(F)F)c2N2CC3(CCC3)C2)c1)N1CCN(c2ncc(C(F)(F)F)cn2)CC1 [Compound 70] | < 100 nM
O=C(c1cccc(Oc2n[nH]c(=O)c(C(F)(F)F)c2N2CC(C(F)F)C2)c1)N1CCN(c2ncc(C(F)(F)F)cn2)CC1 [Compound 72] | < 100 nM
CNc1c(Oc2cccc(C(=O)N3CCN(c4ncc(C(F)(F)F)cn4)CC3)c2)n[nH]c(=O)c1C(C)=O [Compound 74] | > 1000 nM
C#Cc1c(C)c(Oc2cccc(C(=O)N3CCN(c4ncc(C(F)(F)F)cn4)CC3)c2)n[nH]c1=O [Compound 75] | < 100 nM
Cc1c(Nc2cccc(C(=O)N3CCN(c4ncc(C(F)(F)F)cn4)CC3)c2)n[nH]c(=O)c1C(F)(F)F [Compound 76] | < 100 nM
Cc1c(N(C)c2cccc(C(=O)N3CCN(c4ncc(C(F)(F)F)cn4)CC3)c2)n[nH]c(=O)c1C(F)(F)F [Compound 77] | < 100 nM
CN(C)C1CN(c2c(Oc3cccc(C(=O)N4CCN(c5ncc(C(F)(F)F)cn5)CC4)c3)n[nH]c(=O)c2C(F)(F)F)C1 [Compound 82] | < 100 nM
CN(C)c1c(Oc2cccc(C(=O)N3CCN(c4ncc(C(F)(F)F)cn4)CC3)c2)n[nH]c(=O)c1C(F)(F)F [Compound 83] | < 100 nM
O=C(c1cncc(Oc2n[nH]c(=O)c(C(F)(F)F)c2N2CC3(CCC3)C2)c1)N1CCN(c2ncc(C(F)(F)F)cn2)CC1 [Compound 84] | < 100 nM
O=C(c1cccc(Oc2n[nH]c(=O)c(C(F)(F)F)c2N2CC(F)C2)c1)N1CCN(c2ncc(C(F)(F)F)cn2)CC1 [Compound 85] | < 100 nM
O=C(OC[C@@H]1CCCN1c1cc(C(F)(F)F)c(=O)[nH]n1)N1CCN(c2ncc(C(F)(F)F)cn2)CC1 [Compound 87] | < 100 nM
O=C(CC[C@@H]1CCCN1c1n[nH]c(=O)c2c(F)cccc12)N1CCN(c2ncc(C(F)(F)F)cn2)CC1 [Compound 97] | < 100 nM
C[C@@H]1C[C@H](OCC(=O)N2CCN(c3ncc(C(F)(F)F)cn3)CC2)c2n[nH]c(=O)c(C(F)(F)F)c2O1 [Compound 115] | 100 to 1000 nM
COC[C@@H]1C[C@H](OCC(=O)N2CCN(c3ncc(C(F)(F)F)cn3)CC2)c2n[nH]c(=O)c(C(F)(F)F)c2O1 [Compound 116] | 100 to 1000 nM
Cc1c(N2CCC[C@H]2CCC(=O)N2CCN(c3ncc(C(F)(F)F)cn3)CC2)n[nH]c(=O)c1C(F)(F)F [Compound 127] | < 100 nM
N#Cc1ccc2c(c1)N(c1cc(C(F)(F)F)c(=O)[nH]n1)CC(CC(=O)N1CCN(c3ncc(C(F)(F)F)cn3)CC1)O2 (stereo not shown) [Compound 136] | < 100 nM
O=C(c1cccc(Oc2n[nH]c(=O)c(C(F)(F)F)c2C#CC2CC2)c1)N1CCN(c2ncc(C(F)(F)F)cn2)CC1 [Compound 139] | 100 to 1000 nM
O=C(CC1CN(c2cc(C(F)(F)F)c(=O)[nH]n2)c2cc(F)ccc2O1)N1CCN(c2ncc(Br)cn2)CC1 (stereo not shown) [Compound 142] | < 100 nM
C[C@@H]1CN(C(=O)c2cc(Oc3n[nH]c(=O)c(C(F)(F)F)c3N3CC4(C3)CC(F)(F)C4)ccn2)CCN1c1cnc(C(F)(F)F)cn1 [Compound 147] | < 100 nM
O=C(c1cc(Oc2n[nH]c(=O)c(C(F)(F)F)c2N2CC3(C2)CC(F)(F)C3)ccn1)N1CCN(c2ccc(C(F)(F)F)cn2)CC1 [Compound 148] | < 100 nM
N#CC1(c2ccnc(N3CCN(C(=O)CC4CN(c5cc(C(F)(F)F)c(=O)[nH]n5)c5cc(Cl)ccc5O4)CC3)n2)CC1 (stereo not shown) [Compound 150] | < 100 nM
